{
  "source": "patent US20060014193A1",
  "about": "“Nucleoside phosphoramidates and nucleoside phosphoramidases” (priority 2004, published 2006)",
  "target": "T1, E. coli Tuner(DE3)pLacI cell lysates (Escherichia coli, UniProt P0ACE7)",
  "T1 construct": "Cell lysates from E. coli Tuner(DE3)pLacI cells (Novagen) were obtained by treatment with lysozyme; host or cells: E. coli Tuner(DE3)pLacI",
  "T1 sequence (P0ACE7 whole entry)": "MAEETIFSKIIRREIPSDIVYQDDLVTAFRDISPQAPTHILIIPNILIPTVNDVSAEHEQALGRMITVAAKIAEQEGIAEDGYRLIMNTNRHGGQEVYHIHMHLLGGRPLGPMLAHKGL",
  "experiment": "31P NMR phosphoramidase activity in cell lysates",
  "assay_type": "biochemical",
  "method": "Phosphoramidase activity in cell lysates was measured by the ^1H-decoupling mode of phosphorus-31 NMR spectroscopy (Varian VAC-300 spectrometer), which can clearly distinguish the substrate, AMP-NH2, and the product, adenosine 5′-monophosphate (AMP). NMR spectrometry is suitable for quantitation by integration of the area under the peak, which is proportional to the amount of nuclei present. The relative ratio of peak areas can be used to calculate the amount of turnover corrected based on a standard curve.\nCell lysates from E. coli Tuner(DE3)pLacI cells (Novagen) were obtained by treatment with lysozyme (1 mg/ml) and the DNA was precipitated by protamine sulfate followed by centrifugation to remove cell debris. The supernatant was dialyzed extensively against Buffer A (20 mM Tris (pH 7.0); 1 mM EDTA; 1 mM DTT, 0.01 mM PMSF) to remove cellular phosphates and nucleotides. Phosphate free cell lysates (0.75 mg total protein) were incubated with 5 mM AMP-NH2 in 0.5 ml reaction buffer (0.5 mM MgCl2, 20 mM HEPES (pH 7.2)) at 37° C. for intervals of 15 min, 30 min, and 12 h. The reactions were terminated by snap freezing in a dry ice/acetone slush bath and lyophilized for 5 h. […] For the low pH control experiment, 10 mM AMP-NH2 in reaction buffer (500 μL, pH 2.0) was incubated at 37° C. for 12 h and the 31p signal was detected under the same conditions. […]",
  "data": [
    {"compound": "Nc1ncnc2c1ncn2[C@@H]1O[C@H](COP(N)(=O)O)[C@@H](O)[C@H]1O", "note": "[AMP-NH2, Adenosine 5′-monophosphoramidate]", "values": [
      {"measurement": "Extent of hydrolysis to AMP", "setting": "12 h incubation, 37° C.", "value": "complete hydrolysis"},
      {"measurement": "Hydrolysis rate by E. coli cell lysates", "setting": "pH 7.0, 37° C., 5 mM, averaged for 15 min and 30 min", "value": "76.3 (±20.9) nmol mg^−1 min^−1"}
    ]}
  ]
}
